The text below walks through data of ChEMBL document CHEMBL5725430, “Dihydro-benzo-oxazine and dihydro-pyrido-oxazine derivatives” (2017).

Experiment [1] concerns the target Phosphatidylinositol 4,5-bisphosphate 3-kinase catalytic subunit alpha isoform (Homo sapiens, UniProt P42336). The experiment in a line: (§1) The final concentrations of ATP and phosphatidyl inositol in the assay are 5 μM and 6 μg/mL, respectively. The reaction is started by the addition of PI3 kinase, e.g. PI3 kinase 6.p110δ.The components of the assay are added per well as follows 10 μl test compound in 5% DMSO per well in columns 2-1. Total activity is determined by addition 10 μl of 5% vol/vol DMSO in the first 4 wells of column 1 and the last 4 wells of column 12. The background is determined by addition of 10 μM control compound to the last 4 wells of column 1 and the first 4 wells of column 12. 2 mL Assay mix are prepared per plate 1.912 mL of HEPES assay buffer 8.33 μl of 3 mM stock of ATP giving a final concentration of 5 μM per well 1 μl of [33P]ATP on the activity date giving 0.05 μCi per well 30 μl of 1 mg/mL PI stock giving a final concentration of 6 μg/mL per well 5 μl of 1 M stock MgCl2 giving a final concentration of 1 mM per well 20 μl of the assay mix are added per well. 2 mL Enzyme mix are prepared per plate (x* μl PI3 kinase p110(3 in 2 mL of kinase buffer). The Enzyme mix is kept on ice during addition to the assay plates. 20 μl ‘Enzyme mix’ are added/well to start the reaction. The plate is then incubated at room temperature for 90 minutes. The reaction is terminated by the addition of 50 μl WGA-SPA bead (wheat germ agglutinin-coated Scintillation Proximity Assay beads) suspension per well. The assay plate is sealed using TopSeal-S (heat seal for polystyrene microplates, PerkinElmer LAS [Deutschland] GmbH, Rodgau, Germany) and incubated at room temperature for at least 60 minutes. The assay plate is then centrifuged at 1500 rpm for 2 minutes using the Jouan bench top centrifuge (Jouan Inc., Nantes, France). The assay plate is counted using a Packard TopCount, each well being counted for 20 seconds. The volume of enzyme is dependent on the enzymatic activity of the batch in use.In a more preferred assay, the kinase reaction is performed in a final volume of 10 μl per well of a low volume non-binding CORNING, 384 well black plate (Cat. No. #3676). The final concentrations of ATP and phosphatidyl inositol (PI) in the assay are 1 μM and 10 μg/mL, respectively. The reaction is started by the addition of ATP.The components of the assay are added per well as follows:50 nl test compounds in 90% DMSO per well, in columns 1-20, 8 concentrations (⅓ and 1/3.33 serial dilution step) in single. Low control: 50 nl of 90% DMSO in half the wells of columns 23-24 (0.45% in final). High control: 50 nl of reference compound (e.g. compound of Example 7 in WO 2006/122806) in the other half of columns 23-24 (2.5 μM in final). Standard: 50 nl of reference compound as just mentioned diluted as the test compounds in columns 21-22. 20 mL buffer are prepared per assay 200 μl of 1M TRIS HCl pH7.5 (10 mM in final) 60 μl of 1M MgCl2 (3 mM in final) 500 μl of 2M NaCl (50 mM in final) 100 μl of 10% CHAPS (0.05% in final) 200 μl of 100 mM DTT (1 mM in final) 18.94 mL of nanopure water 10 mL PI are prepared per assay 200 μl of 1 mg/mL 1-alpha-Phosphatidylinositol (Liver Bovine, Avanti Polar Lipids Cat. No. 840042C MW=909.12) prepared in 3% OctylGlucoside (10 μg/mL in final) 9.8 mL of buffer 10 mL ATP are prepared per assay. Background: SPA uses beads or plates that emit light when radiolabelled molecules are held near them.

In experiment [2] the target is T1, Phosphatidylinositol 4,5-bisphosphate 3-kinase catalytic subunit delta isoform (Homo sapiens, UniProt O00329).
T1 sequence (O00329 whole entry): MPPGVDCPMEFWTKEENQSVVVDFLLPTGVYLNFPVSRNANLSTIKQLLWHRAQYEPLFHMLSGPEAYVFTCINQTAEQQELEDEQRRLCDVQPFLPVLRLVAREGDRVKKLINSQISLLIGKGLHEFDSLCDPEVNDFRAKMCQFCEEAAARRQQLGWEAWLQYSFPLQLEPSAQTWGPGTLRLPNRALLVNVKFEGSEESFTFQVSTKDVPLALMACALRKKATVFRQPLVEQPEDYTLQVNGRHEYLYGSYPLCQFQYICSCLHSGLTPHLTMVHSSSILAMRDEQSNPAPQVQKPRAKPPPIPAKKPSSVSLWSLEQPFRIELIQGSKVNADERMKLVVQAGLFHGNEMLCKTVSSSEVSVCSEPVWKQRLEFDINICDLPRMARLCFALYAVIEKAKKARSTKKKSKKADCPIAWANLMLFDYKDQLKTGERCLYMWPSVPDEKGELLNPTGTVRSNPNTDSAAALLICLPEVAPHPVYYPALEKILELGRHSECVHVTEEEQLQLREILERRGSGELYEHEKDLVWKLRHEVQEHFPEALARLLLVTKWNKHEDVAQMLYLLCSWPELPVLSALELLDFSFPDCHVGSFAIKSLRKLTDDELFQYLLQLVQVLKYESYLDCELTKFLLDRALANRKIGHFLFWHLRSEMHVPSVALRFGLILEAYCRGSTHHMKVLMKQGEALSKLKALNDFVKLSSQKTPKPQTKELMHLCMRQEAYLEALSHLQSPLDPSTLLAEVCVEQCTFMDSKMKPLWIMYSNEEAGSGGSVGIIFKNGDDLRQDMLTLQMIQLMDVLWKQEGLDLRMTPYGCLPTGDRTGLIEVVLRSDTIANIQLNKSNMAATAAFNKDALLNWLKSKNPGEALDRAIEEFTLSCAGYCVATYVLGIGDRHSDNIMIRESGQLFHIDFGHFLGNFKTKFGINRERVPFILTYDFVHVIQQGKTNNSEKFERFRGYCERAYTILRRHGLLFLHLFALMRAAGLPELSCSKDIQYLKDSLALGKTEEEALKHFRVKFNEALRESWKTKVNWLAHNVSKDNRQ
The experiment is described as §1.

Where “and” joins values, the source holds several entries; their conditions need not be identical. Equal entries are not always repeated.

Chain of Phosphatidylinositol 4,5-bisphosphate 3-kinase catalytic subunit alpha isoform (P42336 whole entry, canonical isoform): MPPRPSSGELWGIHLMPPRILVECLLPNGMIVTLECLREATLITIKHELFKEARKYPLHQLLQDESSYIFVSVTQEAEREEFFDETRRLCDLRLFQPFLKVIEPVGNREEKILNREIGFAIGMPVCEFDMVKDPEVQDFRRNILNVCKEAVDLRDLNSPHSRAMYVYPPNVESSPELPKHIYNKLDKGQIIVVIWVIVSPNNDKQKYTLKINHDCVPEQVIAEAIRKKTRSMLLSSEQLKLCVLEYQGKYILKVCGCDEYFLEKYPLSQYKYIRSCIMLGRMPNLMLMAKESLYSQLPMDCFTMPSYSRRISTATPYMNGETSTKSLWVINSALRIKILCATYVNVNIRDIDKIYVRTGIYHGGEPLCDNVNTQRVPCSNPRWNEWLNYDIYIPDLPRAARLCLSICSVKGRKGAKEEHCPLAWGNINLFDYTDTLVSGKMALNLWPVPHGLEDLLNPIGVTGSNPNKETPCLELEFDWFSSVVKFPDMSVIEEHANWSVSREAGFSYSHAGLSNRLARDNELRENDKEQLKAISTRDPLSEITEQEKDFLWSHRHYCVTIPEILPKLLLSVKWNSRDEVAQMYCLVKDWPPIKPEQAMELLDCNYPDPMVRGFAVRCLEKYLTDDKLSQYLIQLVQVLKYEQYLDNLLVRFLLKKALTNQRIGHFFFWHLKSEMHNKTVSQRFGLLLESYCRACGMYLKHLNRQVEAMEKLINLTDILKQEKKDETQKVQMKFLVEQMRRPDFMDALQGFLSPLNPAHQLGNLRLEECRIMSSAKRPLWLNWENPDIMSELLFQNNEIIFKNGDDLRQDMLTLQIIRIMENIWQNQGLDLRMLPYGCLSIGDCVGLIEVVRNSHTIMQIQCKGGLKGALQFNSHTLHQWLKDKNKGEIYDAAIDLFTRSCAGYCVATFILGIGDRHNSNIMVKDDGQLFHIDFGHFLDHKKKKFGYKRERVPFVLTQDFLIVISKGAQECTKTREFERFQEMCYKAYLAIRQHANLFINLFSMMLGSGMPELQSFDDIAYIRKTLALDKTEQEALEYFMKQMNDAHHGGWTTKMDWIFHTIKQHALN

Usually IC50 stands for the midpoint of a concentration-inhibition curve. The low end stands for greater potency, the high end for weaker potency. For the compound `COc1cc(N2CCOc3ccc(O[C@H]4CCN(C(=O)C5CCCO5)C4)cc32)cnc1OC` (single isomer, unassigned), the half-maximal inhibitory concentration (IC50) in experiment [1] was 703 nM and 521 nM; in experiment [2], 5 nM and 7 nM.
In the case of `COc1ncc(N2CCOc3ccc(O[C@H]4CCN(C(=O)c5cn(C)cn5)C4)cc32)cc1F`, the IC50 in experiment [1] came to 209 nM; in experiment [2], 10.2 nM.
The like results for `O=C(C1CCOCC1)N1CC[C@H](Oc2ccc3c(c2)N(c2cncc(C(F)(F)F)c2)CCO3)C1` were, in that order, 377 nM and 9 nM.
The like results for `O=C(C1CCOCC1)N1CC[C@H](Oc2ccc3c(c2)N(c2cncc(S(=O)(=O)N4CCOCC4)c2)CCO3)C1` were, in that order, 313 nM and 3 nM.
The corresponding values for `CC(C)S(=O)(=O)c1cncc(N2CCOc3ccc(O[C@H]4CCN(C(=O)C5CCOCC5)C4)cc32)c1` are 2240 nM and 110 nM.
Consider `Cc1cc(N2CCOc3ccc(O[C@H]4CCN(C(=O)c5ccc(=O)[nH]c5)C4)cc32)cnc1Cl`, for which the concentration for half-maximal inhibition (IC50) was 795 nM in experiment [1] and 35 nM in experiment [2].
On to `COc1cc(N2CCOc3ccc(O[C@H]4CCN(C(=O)c5cn(C)cn5)C4)cc32)cnc1Cl`, for which the IC50 worked out at 496 nM in experiment [1] and 41 nM in experiment [2].
`COc1cc(N2CCOc3ccc(O[C@H]4CCN(C(=O)C5CCC(F)(F)CC5)C4)cc32)cnc1S(C)(=O)=O`: the figures for the IC50 in experiment [1] and in experiment [2] were 870 nM and 35 nM, respectively.
The like results for `Cc1cc(N2CCOc3cnc(O[C@H]4CCN(C(=O)C5CCS(=O)(=O)CC5)C4)cc32)cnc1OC(F)F` were, in that order, 870 nM and 10 nM.
The like results for `Cc1cc(N2CCOc3ccc(O[C@H]4CCN(C(=O)c5cn(C)cn5)C4)cc32)cnc1Cl` were, in that order, 193 nM and 32 nM.
The like results for `Cc1ccc(N2CCOc3ccc(O[C@H]4CCN(C(=O)C5CCOCC5)C4)cc32)cn1` were, in that order, 4660 nM and 37 nM.
In the case of `COc1ncc(N2CCOc3ccc(O[C@H]4CCN(C(=O)C(C)C)C4)cc32)cc1C#N`, the IC50 in experiment [1] came to 463 nM; in experiment [2], 11 nM.
